Several values for one entry are separate records, joined by “and”; a condition that tells them apart may be missing. Equal values may be shown once.
System: HBV
Assay: Viral production from HepAD38 cells, viral load by qPCR of HBV core sequence
Format: cell-based
Details: 5 days, supernatant HBV DNA by qPCR, read-out: Viral Load EC50 Activity range
Procedure: Assay Measuring Activity of Test Compounds on Viral Production from HepAD38 Cells
HepAD38 cells grown in a T-150 flask (Corning, cat #: 430825) with Growth Medium (DMEM/F12 (1:1) (Hyclone, cat #: SH30023.02), 1× Pen/Strep (Invitrogen, cat #: 15140-122), 10% FBS (Tissue Culture Biologics, cat #: 101), 250 μg/mL G418 (Alfa Aesar, cat #: J62671), 1 μg/mL Tetracycline (Teknova, cat #: T3320)) were detached with 0.25% trypsin-EDTA to (Invitrogen, cat #: 25200-056). Tetracycline-free treatment medium (15 mL DMEM/F12 (1:1) 1× Pen/step, with 2% FBS, Tet-system approved (Clontech, cat #: 631106) were then added to mix, transferred into a 50 ml conical tube (Falcon, cat #: 21008-918,) and spun at 1300 rpm for 5 min. Pelleted cells were then re-suspended/washed with 50 mL of 1×DPBS (Invitrogen, cat #: 14190-136) 2 times and 50 mL treatment medium twice. HepAD38 cells were then re-suspended with 10 mL of treatment medium, syringed and counted. Wells of 96-well clear bottom TC plate (Corning, cat #: 3904,) were seeded at 50,000 cells/well in 180 μL of treatment medium, and 20 μL of either 10% DMSO (Sigma, cat #: D4540) as controls or a 10× solution of test compounds in 10% DMSO in treatment media was added for a final compound concentration starting at 10 μM, and plates were incubated in 5% CO2 incubator at 37° C. for 5 days.
Subsequently viral load production was assayed by quantitative PCR (qPCR) of the HBV core sequence. PCR reaction mixture containing forward primers HBV-f 5′-CTGTGCCTTGGGTGGCTTT-3′ (IDT DNA), Reverse primers HBV-r 5′-[…]-3′ (IDT DNA), Fluorescent TaqMan™ Probes HBV-probe 5′-FAM/AGCTCCAAA/ZEN/[…]/3IABkFQ-3′ (IDT DNA), 10 μL/well of PerfeCTa® qPCR ToughMix® (Quanta Biosciences, Cat #: 95114-05K), and 6 μL/well of DEPC water (Alfa Aesar, cat #: J62087) was prepared. […] of supernatant was added to 16 μL of the reaction mixture in a qPCR plate (Applied Biosytems, Cat #: 4309849), sealed with a film (Applied Biosystems, Cat #: 4311971), centrifuged for a few seconds, and subsequently run on an Applied Biosystems VIIA7. The PCR mixture was incubated at 45° C. for 5 min, then 95° C. for 10 min, followed by 40 cycles of 10 seconds at 95° C. and 20 seconds at 60° C. Viral load was quantified against known HBV DNA standards by using ViiA™ 7 Software. Viral load in the supernatant from wells with treated cells were compared against viral load in supernatant from DMSO control wells (>3 per plate). Cell viability assay was performed with CellTiter-Glo Luminescent Cell Viability Assay (Promega, cat #: G7573) with modification. Mixed appropriate amount of CellTiter-Glo (CTG) 1×DPBS in a 1:1 ratio, added 100 uL of the mixture to each well followed completely removal of all supernatant in each well without touching cell surface. Incubated the plate at room temperature for 10 min on an orbital shaker, and then read the plate with a plate reader (TECAN M1000 or Envision). EC50 or CC50 values were calculated through curve-fitting of the four-parameter nonlinear-logistic-regression model (GraphPad Prism or Dotmatics). CC50 values were all >10 μM.

Compound | EC50
COc1cc(-c2nccn2C)ccc1C1CCC(c2nn(C)c(N)c2C(=O)Nc2ccc(F)c(Cl)c2)C1 (single isomer, unassigned) [AIA-367-2, 5-Amino-N-(3-chloro-4-fluorophenyl)-3-(3-(2-methoxy-4-(1-methyl-1H-imidazol-2-yl)phenyl)cyclopentyl)-1-methyl-1H-pyrazole-4-carboxamide] | < 100 nM
Cn1nc(C2CC3CC(O)(CC(=O)O)CC3C2)c(C(=O)Nc2ccc(F)c(Cl)c2)c1N (centres unmarked) [AIA-241] | < 100 nM
Cn1cc(C2CCC(c3nn(C)c(N)c3C(=O)Nc3ccc(F)c(Cl)c3)C2)cn1 (single isomer, unassigned) [AIA-004-D, 5-Amino-N-(3-chloro-4-fluorophenyl)-1-methyl-3-(3-(1-methyl-1H-pyrazol-4-yl)cyclopentyl)-1H-pyrazole-4-carboxamide] | < 100 nM
5-Amino-N-(3-chloro-4-fluorophenyl)-3-(3-(3-chlorophenyl)cyclopentyl)-1-methyl-1H-pyrazole-4-carboxamide [AIA-273] | < 100 nM and 100 to 500 nM
Cn1nc(C2CC3CC(O)(C(=O)NC4CC4)CC3C2)c(C(=O)Nc2ccc(F)c(Cl)c2)c1N (centres unmarked) [AIA-274-2, 5-Amino-N-(3-chloro-4-fluorophenyl)-3-(5-(cyclopropylcarbamoyl)-5-hydroxyoctahydropentalen-2-yl)-1-methyl-1H-pyrazole-4-carboxamide] | < 100 nM
CNC1CC2CC(c3nn(C)c(N)c3C(=O)Nc3ccc(F)c(Cl)c3)CC2C1 (centres unmarked) [AIA-102] | 100 to 500 nM
Cn1cc(C(=O)Nc2ccc(F)c(Cl)c2)c(C2CC3CC(=O)CC3C2)n1 (centres unmarked) [AIA-394] | 500 to 10000 nM
Cn1nc([C@@H]2CC3C/C(=N/O)C[C@@H]3C2)c(C(=O)Nc2ccc(F)c(Cl)c2)c1N (some centres unmarked) [AIA-032-A] | < 100 nM
Cn1nc(C2CC3CC(N4CCOC4=O)CC3C2)c(C(=O)Nc2ccc(F)c(Cl)c2)c1N (centres unmarked) [AIA-046] | < 100 nM
CN(C1CC2CC(c3nn(C)c(N)c3C(=O)Nc3ccc(F)c(Cl)c3)CC2C1)S(C)(=O)=O (centres unmarked) [AIA-043] | < 100 nM
Cn1nc(C2CCC(c3ccccc3)C2)c(C(=O)Nc2ccc(F)c(Cl)c2)c1N (single isomer, unassigned) [AIA-202C, 5-Amino-N-(3-chloro-4-fluorophenyl)-1-methyl-3-(3-phenylcyclopentyl)-1H-pyrazole-4-carboxamide] | 500 to 10000 nM
Cn1nc(C2CC(c3ccccc3)C2)c(C(=O)Nc2ccc(F)c(Cl)c2)c1N (single isomer, unassigned) [AIA-224A, 5-Amino-N-(3-chloro-4-fluorophenyl)-1-methyl-3-(3-phenylcyclobutyl)-1H-pyrazole-4-carboxamide] | < 100 nM
COc1ccccc1C1CCC(c2nn(C)c(N)c2C(=O)Nc2ccc(F)c(Cl)c2)C1 (single isomer, unassigned) [AIA-275D, 5-Amino-N-(3-chloro-4-fluorophenyl)-3-(3-(2-methoxyphenyl)cyclopentyl)-1-methyl-1H-pyrazole-4-carboxamide] | < 100 nM
CC(C)C1(O)CC2C[C@@H](c3nn(C)c(N)c3C(=O)Nc3ccc(F)c(Cl)c3)C[C@H]2C1O (some centres unmarked) [AIA-257-1] | < 100 nM

Same assay, conditions: Hepatitis B virus, HePAD38, 120 h, 5 days, supernatant HBV DNA by qPCR, read-out: Viral Load EC50 Activity range

Compound | EC50
Cn1nc(C2CCC(c3ccc(F)cc3)C2)c(C(=O)Nc2ccc(F)c(Cl)c2)c1N (centres unmarked) [AIA-281, 5-Amino-N-(3-chloro-4-fluorophenyl)-3-(3-(4-fluorophenyl)cyclopentyl)-1-methyl-1H-pyrazole-4-carboxamide] | < 100 nM
Cn1nc(C2CCC(c3cccnc3)C2)c(C(=O)Nc2ccc(F)c(Cl)c2)c1N (centres unmarked) [CP-AIA-270, 5-Amino-N-(3-chloro-4-fluorophenyl)-1-methyl-3-(3-(pyridin-3-yl)cyclopentyl)-1H-pyrazole-4-carboxamide] | < 100 nM
Cn1nc(C2CC3CC(O)(CS(=O)(=O)CCCN4CCCCC4)CC3C2)c(C(=O)Nc2ccc(F)c(Cl)c2)c1N (single isomer, unassigned) [AIA-349-b, 5-Amino-N-(3-chloro-4-fluorophenyl)-3-(5-hydroxy-5-(((3-(piperidin-1-yl)propyl)sulfonyl)methyl)octahydropentalen-2-yl)-1-methyl-1H-pyrazole-4-carboxamide] | 100 to 500 nM
Cn1nc(C2CC3CC(N4CCOCC4)CC3C2)c(C(=O)Nc2ccc(F)c(Cl)c2)c1N (centres unmarked) [AIA-041, 5-Amino-N-(3-chloro-4-fluorophenyl)-1-methyl-3-(5-morpholinooctahydropentalen-2-yl)-1H-pyrazole-4-carboxamide] | < 100 nM
CCSC1CC2CC(c3nn(C)c(N)c3C(=O)Nc3ccc(F)c(Cl)c3)CC2C1 (centres unmarked) [AIA-029, 5-Amino-N-(3-chloro-4-fluorophenyl)-3-(5-(ethylthio)octahydropentalen-2-yl)-1-methyl-1H-pyrazole-4-carboxamide] | < 100 nM
COC(=O)N1CC2CC(c3nn(C)c(N)c3C(=O)Nc3ccc(F)c(Cl)c3)CC2C1 (centres unmarked) [AIA-022] | < 100 nM
CC[S+]([O-])C1CC2CC(c3nn(C)c(N)c3C(=O)Nc3ccc(F)c(Cl)c3)CC2C1 (centres unmarked) [AIA-075, 5-Amino-N-(3-chloro-4-fluorophenyl)-3-(5-(ethylsulfinyl)octahydropentalen-2-yl)-1-methyl-1H-pyrazole-4-carboxamide] | < 100 nM
Cn1cc(-c2ccc([C@H]3CC[C@@H](c4nn(C)c(N)c4C(=O)Nc4ccc(F)c(Cl)c4)C3)cc2)cn1 [AIA-050-A, 5-Amino-N-(3-chloro-4-fluorophenyl)-1-methyl-3-((1R,3S)-3-(4-(1-methyl-1H-pyrazol-4-yl)phenyl)cyclopentyl)-1H-pyrazole-4-carboxamide] | < 100 nM
CNC(=O)N1CC2CC(c3nn(C)c(N)c3C(=O)Nc3ccc(F)c(Cl)c3)CC2C1 (centres unmarked) [AIA-023, 5-(5-Amino-4-(3-chloro-4-fluorophenylcarbamoyl)-1-methyl-1H-pyrazol-3-yl)-N-methylhexahydrocyclopenta[c]pyrrole-2(1H)-carboxamide] | < 100 nM
Cn1nc(C2CC3CC(OCC(F)(F)F)CC3C2)c(C(=O)Nc2ccc(F)c(Cl)c2)c1N (centres unmarked) [AIA-101, 5-Amino-N-(3-chloro-4-fluorophenyl)-1-methyl-3-(5-(2,2,2-trifluoroethoxy)octahydropentalen-2-yl)-1H-pyrazole-4-carboxamide] | < 100 nM
COc1ccc([C@H]2CC[C@H](c3nn(C)c(N)c3C(=O)Nc3ccc(F)c(Cl)c3)C2)cc1 [AIA-003-B, 5-amino-N-(3-chloro-4-fluorophenyl)-3-((1S,3S)-3-(4-methoxyphenyl)cyclopentyl)-1-methyl-1H-pyrazole-4-carboxamide] | < 100 nM
COc1cc(-c2cn(C)cn2)ccc1C1CCC(c2nn(C)c(N)c2C(=O)Nc2ccc(F)c(Cl)c2)C1 (single isomer, unassigned) [AIA-365-2, 5-Amino-N-(3-chloro-4-fluorophenyl)-3-(3-(2-methoxy-4-(1-methyl-1H-imidazol-4-yl)phenyl)cyclopentyl)-1-methyl-1H-pyrazole-4-carboxamide] | < 100 nM
COc1cc(-c2cnn(C)c2)ccc1C1CCC(c2nn(C)c(N)c2C(=O)Nc2ccc(F)c(Cl)c2)C1 (centres unmarked) [AIA-369, 5-Amino-N-(3-chloro-4-fluorophenyl)-3-(3-(2-methoxy-4-(1-methyl-1H-pyrazol-4-yl)phenyl)cyclopentyl)-1-methyl-1H-pyrazole-4-carboxamide] | 100 to 500 nM
CC(C)N1CC2CC(c3nn(C)c(N)c3C(=O)Nc3ccc(F)c(Cl)c3)CC2C1 (centres unmarked) [AIA-053, 5-Amino-N-(3-chloro-4-fluorophenyl)-3-(2-isopropyloctahydrocyclopenta[c]pyrrol-5-yl)-1-methyl-1H-pyrazole-4-carboxamide] | 500 to 10000 nM
Cn1nc(C2CC3CC(OC(C)(C)C)CC3C2)c(C(=O)Nc2ccc(F)c(Cl)c2)c1N (centres unmarked) [AIA-058, 5-Amino-3-(5-(tert-butoxy)octahydropentalen-2-yl)-N-(3-chloro-4-fluorophenyl)-1-methyl-1H-pyrazole-4-carboxamide] | < 100 nM

From patent publication US11560370B1, “5-membered heteroaryl carboxamide compounds for treatment of HBV” (Assembly Biosciences, Inc., priority 2018, dated 2023)
